A short description of one data set: Mouse blood stability. The data set is classed as in vitro ADME, CD-1 mice. The note with it: CD-1, mouse, whole blood (EDTA as anticoagulant), 37 °C, SAR peptides, read-out: Blood stability (t1/2) (converted). The method, then: Stability assays were performed using freshly collected matrices from CD-1 mice, with anticoagulant as stated per dataset. Compound stocks in DMSO were tested at 5 μM final concentration (0.5% (v/v) DMSO). Compounds were incubated in blood or plasma at 37 °C for 24 h, with sampling at 0, 1, 2, 4, 6 and 24 h. Samples were prepared via protein precipitation using organic solvent containing internal standard, and analyzed by LC-MS/MS. Compound remaining was quantified based on the ratio of analyte to internal standard, and the half-life (t1/2) was calculated from a log linear plot of % remaining versus time.

In data set [1] the test system is Acinetobacter baumannii NCTC 12156. The data set can be described thus: MIC. The data set is classed as cell-based. The note with it: caMHB, replicates listed. The method, then:
(§1) Minimal inhibition concentration (MIC) assays were performed in accordance with CLSI standards, using cation-adjusted Mueller Hinton broth (caMHB; Sigma Aldrich) unless otherwise specified. Induction of pore expression in hyperporinated strains E. coli GKCW101 and GKCW102 was performed by addition of 0.1% (w/v) L-arabinose to cultures at OD600 ~ 0.3, with caMHB as the culture medium.

The subject of data set [2] is Enterobacter cloacae KPC114. The data set can be described thus: MIC. In kind it is cell-based. The method, then:
as §1

Data set [3] concerns Citrobacter freundii AR0116. As to the kind of experiment: MIC. In kind it is cell-based. The note with it: caMHB, replicates listed; for MIC: Citrobacter freundii, AR0116. On the procedure:
as §1

For data set [4], the system named is Escherichia coli ATCC BAA-2469. As to the kind of experiment: MIC. In kind it is cell-based. The note with it: caMHB, replicates listed; for MIC: Escherichia coli, ATCCBAA2469. On the procedure:
as §1

Another data set has as its system Proteus mirabilis AR159. As to the kind of experiment: MIC. In kind it is cell-based. The note with it: caMHB, replicates listed; for MIC: Proteus mirabilis, AR159. On the procedure:
as §1

Data set [5] relates to Acinetobacter baumannii AR0275. As to the kind of experiment: MIC. The data set is classed as cell-based. The note with it: caMHB, replicates listed; for MIC: Acinetobacter baumannii, AR0275. The method, then:
as §1

The test system of data set [6] is Enterobacter cloacae AR0038. As to the kind of experiment: MIC. In kind it is cell-based. The note with it: caMHB, replicates listed; for MIC: Enterobacter cloacae, AR0038. The method, then: as §1
The test system of data set [7] is Klebsiella pneumoniae B454. As to the kind of experiment: MIC. In kind it is cell-based. The note with it: caMHB, replicates listed. On the procedure: as §1
Data set [8] relates to Klebsiella pneumoniae ATCC 43816. As to the kind of experiment: MIC. In kind it is cell-based. The note with it: caMHB; replicates listed. On the procedure: as §1
For data set [9], the system named is Klebsiella pneumoniae ATCC 700603. As to the kind of experiment: MIC. In kind it is cell-based. The note with it: caMHB; replicates listed. The method, then:
as §1

Data set [10] deals with Citrobacter freundii B121. As to the kind of experiment: MIC. In kind it is cell-based. The note with it: caMHB; replicates listed. On the procedure: as §1
The test system of data set [11] is Pseudomonas aeruginosa ATCC 27853. As to the kind of experiment: MIC. The data set is classed as cell-based. The note with it: caMHB; replicates listed. The method, then:
as §1

For data set [12], the system named is Pseudomonas aeruginosa NCTC 13437. The data set can be described thus: MIC. The data set is classed as cell-based. The note with it: caMHB, replicates listed. On the procedure:
as §1

The subject of data set [13] is Proteus mirabilis ATCC 43071. As to the kind of experiment: MIC. In kind it is cell-based. The note with it: caMHB; replicates listed. On the procedure: as §1
The subject of data set [14] is Enterobacter cloacae B173. As to the kind of experiment: MIC. The data set is classed as cell-based. The note with it: caMHB; replicates listed. The method, then: as §1
For the next data set, the system named is Escherichia coli UTI89. As to the kind of experiment: MIC. In kind it is cell-based. The note with it: caMHB; replicates listed. The method, then: as §1
Data set [15] deals with Enterobacter cloacae AR0032. The data set can be described thus: MIC. In kind it is cell-based. The note with it: caMHB; replicates listed. The method, then: as §1
Data set [16] relates to Escherichia coli NCTC 13441. As to the kind of experiment: MIC. The data set is classed as cell-based. The note with it: caMHB, replicates listed. On the procedure: as §1
The subject of another data set is E. coli GKCW101 (WT). The note with it: caMHB; biological replicates or their range. The method, then:
(§2) To evaluate the engagement of EcPBP3 by a bicyclic peptide in whole cells lacking the outer membrane permeability barrier, peptides were screened in ‘hyperporinated’ E. coli strains in which a constitutively open FhuA pore (FhuAΔC/Δ4L, lacking N-terminal cork domain and external loops) was chromosomally expressed under control of an arabinose-inducible promoter.
as §1

A further data set has as its system E. coli GKCW102 (EcPore). The note with it: caMHB; biological replicates or their range. The method, then: as §2, §1
The test system of the next data set is E. coli ATCC 25922. As to the kind of experiment: MIC, wild-type strain. The data set is classed as cell-based, Escherichia coli. The method, then: as §1
In data set [17] the test system is Klebsiella pneumoniae KPNIH1. The data set can be described thus: MIC. The data set is classed as cell-based. The note with it: caMHB, replicates listed. The method, then:
as §1

Values after ≈ are worked out from the molar mass of the structure shown. *1 amine or outer side, *2 acyl side, *3 side chain or, on linkers, in order; H or OH if unused. Where a SMILES comes first, the peptide text is derived from it. Bridges are numbered along the chain shown (N, C = ends). [ ]: non-standard residue; d: D form. TATA = O=C(CC[*:1])N1CN(C(=O)CC[*:2])CN(C(=O)CC[*:3])C1; Trp(6-Cl) = N[C@@H](Cc1c[nH]c2cc(Cl)ccc12)C(=O)O; hArg = N=C(N)NCCCC[C@H](N)C(=O)O

As to `CC(=O)N[C@@H](C)C(=O)N[C@H]1CSCCC(=O)N2CN3CN(C2)C(=O)CCSC[C@H](NC(=O)[C@H](CCCCNC(=N)N)NC(=O)[C@@H]2CCCN2C(=O)[C@H](Cc2ccccc2)NC(=O)[C@H](CO)NC1=O)C(=O)N1CCC[C@H]1C(=O)N[C@@H](Cc1c[nH]c2ccccc12)C(=O)N[C@@H](C(C)C)C(=O)N[C@@H](CCC(=O)O)C(=O)NCC(=O)N[C@H](C(=O)N[C@@H](C)C(N)=O)CSCCC3=O` [Peptide 73], the half-life at 5 μM in “Mouse blood stability” was 14.1 h.
Same read-out and setting: the result for `CC(=O)N[C@@H](C)C(=O)N[C@H]1CSCCC(=O)N2CN3CN(C2)C(=O)CCSC[C@H](NC(=O)[C@H](CCCCNC(=N)N)NC(=O)[C@@H]2CCCN2C(=O)[C@H](Cc2ccccc2)NC(=O)[C@H](CO)NC1=O)C(=O)N1CCC[C@H]1C(=O)N[C@@H](Cc1c[nH]c2cc(Cl)ccc12)C(=O)N[C@@H](C(C)C)C(=O)N[C@@H](CCC(=O)O)C(=O)NCC(=O)N[C@H](C(=O)N[C@@H](C)C(N)=O)CSCCC3=O` [Peptide 75, [-Ac]ACSFP[HArg]CP[6ClTrp]VEGCA] (Ac-ACSFP[hArg]CP[Trp(6-Cl)]VEGCA-NH2; linker 2-7-13 via TATA) reads 11.4 h.
Usually MIC stands for the lowest concentration that inhibits growth of the organism. For `C[C@@H](O)[C@H]1C(=O)N2C(C(=O)O)=C(S[C@@H]3CN[C@H](C(=O)N(C)C)C3)[C@H](C)[C@H]12` [Meropenem, reference compound], the MIC was 1.1 µg/mL (≈ 2.87 µM) in data set [1] (Acinetobacter baumannii, NCTC12156); greater than 2 µg/mL in [2] (Enterobacter cloacae, KPC114, read-out: MIC Enterobacter cloacae KPC114); greater than 2 µg/mL in [3]; greater than 2 µg/mL in data set [4]; greater than 2 µg/mL with Proteus mirabilis AR159; greater than 2 µg/mL in data set [5]. In data set [6], this compound displayed an MIC greater than 2 µg/mL.
ACSFPKCPWVEGCA* [Conjugate 2]: the “MIC Acinetobacter baumannii NCTC 12156” value in data set [1] was greater than 64 µg/mL. Further, in [2] (caMHB, replicates listed), the “MIC Enterobacter cloacae KPC114” value amounted to 8 µg/mL. For the same compound, in data set [7], the “MIC Klebsiella pneumoniae B454” value was 16,32 μg mL-1. In addition, the “MIC Klebsiella pneumoniae ATCC 43816” value in data set [8] is 8,16 μg mL-1. Further, the “MIC Klebsiella pneumoniae ATCC 700603” value in [9] worked out at 16 µg/mL. The “MIC Citrobacter freundii B121” value in data set [10] was determined as 8 µg/mL. Further, the “MIC Pseudomonas aeruginosa ATCC 27853” value in data set [11] is greater than 64 µg/mL. Further, the “MIC Pseudomonas aeruginosa NCTC 13437” value in [12] is greater than 64 µg/mL. Moreover, the “MIC Proteus mirabilis ATCC 43071” value in data set [13] was greater than 64 µg/mL. Also, the “MIC Citrobacter freundii AR0116” value in data set [3] was 8 µg/mL. Further, the “MIC Enterobacter cloacae B173” value in data set [14] is 16 µg/mL. In addition, the “MIC Escherichia coli ATCC BAA-2469” value in data set [4] was 8,8 μg mL-1. Besides, the “MIC Escherichia coli UTI89” value in the data set on Escherichia coli UTI89 was determined as 8 µg/mL. The “MIC Proteus mirabilis AR159” value in the data set with Proteus mirabilis AR159 is greater than 64 µg/mL. Further, in data set [5], the “MIC Acinetobacter baumannii AR0275” value is greater than 64 µg/mL. Moreover, the “MIC Enterobacter cloacae AR0032” value in data set [15] amounted to 4 µg/mL. The “MIC Enterobacter cloacae AR0038” value in data set [6] was 8 µg/mL. In addition, in [16], the “MIC Escherichia coli NCTC 13441” value is 4,8 μg mL-1. In addition, the “MIC E. coli GKCW101 (WT)” value with E. coli GKCW101 (WT) is 4 to 8 µg/mL. Further, the “MIC E. coli GKCW102 (EcPore)” value in the data set on E. coli GKCW102 (EcPore) is 0.5 to 1 µg/mL. In the data set with E. coli ATCC 25922 (MHB, biological replicates or their range), the “MIC E. coli ATCC 25922” value fell in the range of 1 to 2 µg/mL. The “MIC Escherichia coli ATCC 25922” value in the data set with E. coli ATCC 25922 (caMHB, replicates listed, number in brackets) is on record as 2,8 μg mL-1.
For `C[C@H]1COc2c(N3CCN(C)CC3)c(F)cc3c(=O)c(C(=O)O)cn1c23` [Levofloxacin, reference compound], the MIC in data set [17] was greater than 2 µg/mL; in data set [7] (Klebsiella pneumoniae, B454), greater than 2 µg/mL; in data set [12] (Pseudomonas aeruginosa, NCTC13437), 2.2 µg/mL (≈ 6.09 µM); in data set [3] it was greater than 2 µg/mL; in [4] it was greater than 2 µg/mL; in the data set with Proteus mirabilis AR159 it was 2.2 µg/mL (≈ 6.09 µM). The MIC in data set [5] was 2.2 µg/mL (≈ 6.09 µM); in data set [6], greater than 2 µg/mL; in data set [16] (Escherichia coli, NCTC13441), greater than 2 µg/mL.

Values taken from paper PMC12120022, “Discovery and chemical optimisation of a potent, Bi-cyclic antimicrobial inhibitor of Escherichia coli PBP3” (Communications Biology, 2025).
